For twelve molecules, IC50 results are on record in US20250304549A1, “HYDROXYAMIDE DERIVATIVE AND USE THEREOF” (SICHUAN HUIYU PHARMACEUTICAL CO., LTD., priority 2022, published 2025).

Structures can show the parent of a compound that is named as a salt.

Assay [1] concerns the target LSD1 (Homo sapiens (Human), UniProt O60341). The assay can be described thus: In vitro enzyme inhibition assay - LSD1 (HTRF). The assay is classed as biochemical. (Time-resolved FRET reads energy transfer from a long-lived donor to a nearby acceptor.)
The target in assay [2] is pan-HDAC. In words: In vitro enzyme inhibition assay - HDAC (HDAC-Glo I/II), pan-HDAC. The assay is classed as biochemical. The gist of the method:
(§1)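 Eight compound concentrations (5-fold steps from a 1 mM DMSO stock) tested against pan-HDAC, HDAC1 and HDAC8 with HDAC-Glo I/II reagents, luminescence read-out. Percent inhibition normalized to no-inhibitor and no-enzyme wells; IC50 derived by four-parameter logistic fit.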

For assay [3], the target named is HDAC1 (Homo sapiens (Human), UniProt Q13547). The assay can be described thus: In vitro enzyme inhibition assay - HDAC (HDAC-Glo I/II), HDAC1. The assay is classed as biochemical. The note with it: read-out: HDAC IC50 (nM) HDAC 1. The gist of the method:
as §1

The target of assay [4] is HDAC8 (Homo sapiens (Human), UniProt Q9BY41). In words: In vitro enzyme inhibition assay - HDAC (HDAC-Glo I/II), HDAC8. Format: biochemical. The note with it: read-out: HDAC IC50 (nM) HDAC 8. The gist of the method: as §1
Assay [5] deals with NCI-H1417 cells. The assay can be described thus: In vitro cell inhibition assay - H1417 cell proliferation (CellTiter-Glo). The note with it: Homo sapiens, NCI-H1417, H1417 small cell lung cancer cell proliferation. The assay is classed as cell-based. The gist of the method:
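Cells exposed to 8 compound concentrations (5-fold dilutions) in BEGM with 10% FBS for 7 days at 37° C., 5% CO2. Viable cells measured by CellTiter-Glo luminescence; inhibition versus no-inhibitor and no-cell controls, IC50 fitted.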
(In general: ATP-based viability assays read luminescence as a measure of living cells.)

Assay [6] concerns NCI-H69 cells. In words: In vitro cell inhibition assay - NCI-H69 cell proliferation (CellTiter-Glo). The assay is classed as cell-based. The note with it: Homo sapiens, NCI-H69, H69 small cell lung cancer cell proliferation. The gist of the method: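 NCI-H69 cells seeded at 1×10^3 per well overnight, then given 8 compound concentrations (5-fold dilutions) in RPMI-640 with 20% FBS for 7 days at 37° C., 5% CO2. Viable cells by CellTiter-Glo luminescence; IC50 fitted from inhibition rate versus no-inhibitor and no-cell controls.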

Assay [7] deals with DU145 cells. In words: In vitro cell inhibition assay - DU145 cell proliferation (CellTiter-Glo). Format: cell-based. The note with it: Homo sapiens, DU-145, Du145 prostate cancer cell proliferation. The gist of the method:
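DU145 cells were seeded at 1×10^3 per well, exposed next day to an 8-point, 5-fold compound dilution series in RPMI-640 with 10% FBS, and incubated 6 days at 37° C. Viable cells were measured by CellTiter-Glo luminescence, and IC50 was fitted from inhibition rates relative to no-inhibitor and no-cell controls.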

The test system of assay [8] is NCI-H526 cells. The assay can be described thus: In vitro cell inhibition assay - NCI-H526 cell proliferation (CellTiter-Glo). Particulars: Homo sapiens, NCI-H526, 120 h, H526 small cell lung cancer cell proliferation, 5 days. Format: cell-based. The gist of the method:
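NCI-H526 cells plated at 1×10^3 per well overnight, then treated with 8 concentrations (5-fold dilutions) in RPMI-640 with 10% FBS for 5 days at 37° C., 5% CO2. Viable cells quantified by CellTiter-Glo luminescence; IC50 fitted from inhibition rates relative to no-inhibitor and no-cell controls.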

Sequence of HDAC1 (Q13547 whole entry): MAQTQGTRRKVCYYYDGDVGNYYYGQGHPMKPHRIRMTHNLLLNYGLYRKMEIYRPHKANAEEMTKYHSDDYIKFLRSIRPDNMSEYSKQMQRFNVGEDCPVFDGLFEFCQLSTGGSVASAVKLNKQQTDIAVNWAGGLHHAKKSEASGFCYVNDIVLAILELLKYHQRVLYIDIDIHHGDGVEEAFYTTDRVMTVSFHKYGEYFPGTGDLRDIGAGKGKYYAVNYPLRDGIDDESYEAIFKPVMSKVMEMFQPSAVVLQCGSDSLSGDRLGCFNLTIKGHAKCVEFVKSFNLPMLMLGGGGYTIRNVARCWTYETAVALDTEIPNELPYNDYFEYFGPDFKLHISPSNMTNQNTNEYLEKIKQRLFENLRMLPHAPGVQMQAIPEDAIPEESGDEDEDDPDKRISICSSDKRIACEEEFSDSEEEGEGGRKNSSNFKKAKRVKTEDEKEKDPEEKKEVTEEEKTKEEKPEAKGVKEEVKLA
Sequence of HDAC8 (Q9BY41 whole entry): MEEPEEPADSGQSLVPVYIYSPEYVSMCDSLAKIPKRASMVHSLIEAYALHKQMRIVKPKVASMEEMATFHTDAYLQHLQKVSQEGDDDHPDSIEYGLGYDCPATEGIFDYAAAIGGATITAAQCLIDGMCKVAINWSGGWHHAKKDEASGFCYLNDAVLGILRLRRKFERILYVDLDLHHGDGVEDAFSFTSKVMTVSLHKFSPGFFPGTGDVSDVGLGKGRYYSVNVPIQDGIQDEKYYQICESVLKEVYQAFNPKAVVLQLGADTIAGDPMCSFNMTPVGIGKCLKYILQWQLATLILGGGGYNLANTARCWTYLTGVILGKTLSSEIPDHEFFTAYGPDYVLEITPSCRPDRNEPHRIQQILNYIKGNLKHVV

For `Cc1ccc(-c2cnc(N3CCC(NCc4ccc(/C=C/C(=O)NO)cc4)CC3)c(C#N)c2-c2ccc(C#N)c(F)c2)cc1O` [Example 102, (E)-3-(4-(((1-(3-Cyano-4-(4-cyano-3-fluorophenyl)-5-(3-hydroxy-4-methylphenyl)pyridin-2-yl)piperidin-4-yl)amino)methyl)phenyl)-N-hydroxyacrylamide formate], the IC50 (usually the midpoint of a concentration-inhibition curve) in assay [1] was determined as 0.00131 µM; in assay [2], 45.2 nM; in assay [3], 16.3 nM; in assay [4] it was 178 nM; in assay [5] it was 0.0031 µM; in assay [6], 0.00036 µM. For the same molecule, the IC50 was found to be 0.00743 µM in assay [7] and 0.00427 µM in assay [8].

On to `COc1ccc(-c2cnc(N3CCC(NCc4ccc(/C=C/C(=O)NO)cn4)CC3)c(C#N)c2-c2ccc(C#N)c(F)c2)cc1O` [Example 104, (E)-3-(6-((1-(3-Cyano-4-(4-cyano-3-fluorophenyl)-5-(3-hydroxy-4-methoxyphenyl)pyridin-2-yl)piperidin-4-yl)amino)methyl) pyridin-3-yl)-N-hydroxyacrylamide formate], for which the IC50 turned out to be 0.00071 µM in assay [1]; 10.7 nM in assay [2]; 5.3 nM in assay [3]; 70.1 nM in assay [4]; 0.00658 µM in assay [5]; 0.00229 µM in assay [6]. Further, the IC50 in assay [7] was found to be 0.0248 µM; in assay [8], 0.0169 µM.

Take `COc1ccc(-c2cnc(N3CCC(NCc4ccc(/C=C/C(=O)NO)s4)CC3)c(C#N)c2-c2ccc(C#N)c(F)c2)cc1O` [Example 105, (E)-3-(5-(((1-(3-Cyano-4-(4-cyano-3-fluorophenyl)-5-(3-hydroxy-4-methoxyphenyl)pyridin-2-yl)piperidin-4-yl)amino)methyl)thiophen-2-yl)-N-hydroxyacrylamide formate]: the half-maximal inhibitory concentration (IC50) is 0.00124 µM in assay [1]; 114 nM in assay [2]; 120 nM in assay [3]; 185 nM in assay [4]; 0.00448 µM in assay [5]; 0.102 µM in assay [6]. The half-inhibitory concentration (IC50) in assay [7] turned out to be 0.317 µM; in assay [8], 0.124 µM.

With `COc1ccc(-c2cnc(N3CCC(NCc4cnc(/C=C/C(=O)NO)nc4)CC3)c(C#N)c2-c2ccc(C#N)c(F)c2)cc1O` [Example 106, (E)-3-(5-(((1-(3-Cyano-4-(4-cyano-3-fluorophenyl)-5-(3-hydroxy-4-methoxyphenyl)pyridin-2-yl)piperidin-4-yl)amino)methyl)pyrimidin-2-yl)-N-hydroxyacrylamide formate], the concentration for half-maximal inhibition (IC50) in assay [1] was 0.00262 µM; in assay [2] it was 4.85 nM; in assay [3], 3.81 nM; in assay [4], 13.1 nM; in assay [5], 0.00329 µM; in assay [6], 0.00348 µM. Also, the figures for the concentration for half-maximal inhibition (IC50) in assay [7] and in assay [8] were 0.0136 µM and 0.00709 µM, respectively.

For the molecule `COc1ccc(-c2cnc(N3CCC(NCc4ccc(/C=C/C(=O)NO)c(OC)c4)CC3)c(C#N)c2-c2ccc(C#N)c(F)c2)cc1O` [Example 108, (E)-3-(4-(((1-(3-Cyano-4-(4-cyano-3-fluorophenyl)-5-(3-hydroxy-4-methoxyphenyl)pyridin-2-yl)piperidin-4-yl)amino)methyl)-2-methoxyphenyl)-N-hydroxyacrylamide formate], the 50% inhibitory concentration (IC50) in assay [1] was determined as 0.0023 µM; in assay [2], 26.6 nM; in assay [3], 25.8 nM; in assay [4] it was 93.1 nM; in assay [5], 0.0044 µM; in assay [6], 0.016 µM. Further, the IC50 in assay [7] was 0.0286 µM; in assay [8], 0.0138 µM.

For the molecule `Cc1noc2cc(-c3cnc(N4CCC(NCc5ccc(/C=C/C(=O)NO)cc5)CC4)c(C#N)c3-c3ccc(C#N)c(F)c3)c(F)cc12` [Example 110, (E)-3-(4-((1-(3-Cyano-4-(4-cyano-3-fluorophenyl)-5-(5-fluoro-3-methylbenzo[d]isoxazol-6-yl)pyridin-2-yl)piperidin-4-yl)amino)methyl) phenyl)-N-hydroxyacrylamide formate], the half-maximal inhibitory concentration (IC50) in assay [1] is 0.00105 µM; in assay [2], 57.3 nM; in assay [3] it was 156 nM; in assay [4] it was 137 nM; in assay [5], 0.0027 µM; in assay [6], 0.0827 µM. The IC50 in assay [7] stood at 0.187 µM; in assay [8] it was 0.127 µM.

As to `N#Cc1ccc(-c2c(-c3ccc(C4CC4)c(O)c3)cnc(N3CCC(NCc4ccc(/C=C/C(=O)NO)cc4)CC3)c2C#N)cc1F` [Example 111, (E)-3-(4-((1-(3-Cyano-4-(4-cyano-3-fluorophenyl)-5-(4-cyclopropyl-3-hydroxyphenyl)pyridin-2-yl)piperidin-4-yl)amino)methyl) phenyl)-N-hydroxyacrylamide formate], the half-maximal inhibitory concentration (IC50) in assay [1] worked out at 0.00156 µM; in assay [2], 65.3 nM; in assay [3], 83.1 nM; in assay [4], 358 nM; in assay [5], 0.00198 µM; in assay [6] it was 0.00341 µM. Besides, the half-maximal inhibitory concentration (IC50) turned out to be 0.0142 µM in assay [7] and 0.0162 µM in assay [8].

For the molecule `COc1ccc(-c2cnc(N3CCC(NCc4cnc(/C=C/C(=O)NO)s4)CC3)c(C#N)c2-c2ccc(C#N)c(F)c2)cc1O` [Example 112, (E)-3-(5-((1-(3-Cyano-4-(4-cyano-3-fluorophenyl)-5-(3-hydroxy-4-methoxyphenyl)pyridin-2-yl)piperidin-4-yl)amino)methyl) thiazol-2-yl)-N-hydroxyacrylamide formate], the IC50 in assay [1] amounted to 0.00266 µM; in assay [2], 26.9 nM; in assay [3], 26.3 nM; in assay [4] it was 81.4 nM; in assay [5] it was 0.00414 µM; in assay [6], 0.0327 µM. In addition, the IC50 in assay [7] is 0.0868 µM; in assay [8], 0.0635 µM.

For the molecule `N#Cc1ccc(-c2cnc(N3CCC(NCc4ccc(/C=C/C(=O)NO)cc4)CC3)c(C#N)c2-c2ccc(C#N)c(F)c2)cc1O` [Example 113, (E)-3-(4-(((1-(3-Cyano-4-(4-cyano-3-fluorophenyl)-5-(4-cyano-3-hydroxyphenyl)pyridin-2-yl)piperidin-4-yl)amino)methyl)phenyl)-N-hydroxyacrylamide formate], the 50% inhibitory concentration (IC50) came out at 0.002 µM in assay [1]; 25 nM in assay [2]; 17.3 nM in assay [3]; 72.7 nM in assay [4]; 0.0298 µM in assay [5]; 0.0763 µM in assay [6]. In addition, the IC50 in assay [7] was 0.13 µM; in assay [8] it was 0.08 µM.

On to `COc1ccc(-c2cnc(N3CCC(NCc4cccc(/C=C/C(=O)NO)c4)CC3)c(C#N)c2-c2ccc(C#N)c(F)c2)cc1O` [Example 114, (E)-3-(3-(3-Cyano-4-(4-cyano-3-fluorophenyl)-5-(3-hydroxy-4-methoxyphenyl)pyridin-2-yl)piperidin-4-yl)amino)methyl) phenyl)-N-hydroxyacrylamide formate], for which the IC50 in assay [1] came out at 0.00097 µM; in assay [2] it was 175 nM; in assay [3], 178 nM; in assay [4] it was 571 nM; in assay [5], 0.0094 µM; in assay [6] it was 0.0782 µM. Moreover, the IC50 in assay [7] came out at 0.391 µM; in assay [8], 0.155 µM.

For the molecule `N#Cc1ccc(-c2c(-c3ccc(OC(F)(F)F)c(O)c3)cnc(N3CCC(NCc4ccc(/C=C/C(=O)NO)cc4)CC3)c2C#N)cc1F` [Example 116, (E)-3-(4-(1-(3-Cyano-4-(4-cyano-3-fluorophenyl)-5-(3-hydroxy-4-(trifluoromethoxy)phenyl)pyridin-2-yl)piperidin-4-yl)amino)methyl) phenyl)-N-hydroxyacrylamide formate], the concentration for half-maximal inhibition (IC50) was found to be 0.00182 µM in assay [1]; 12.7 nM in assay [2]; 5.59 nM in assay [3]; 212 nM in assay [4]; 0.00489 µM in assay [5]; 0.0338 µM in assay [6]. In addition, the IC50 amounted to 0.082 µM in assay [7] and 0.0338 µM in assay [8].

In the case of `COc1ccc(-c2cnc(N3CCC(NCc4ccc(/C=C/C(=O)NO)cc4)CC3)c(C#N)c2-c2ccc(C#N)cc2)cc1O` [Example 118, (E)-3-(4-((1-(3-Cyano-4-(4-cyanophenyl)-5-(3-hydroxy-4-methoxyphenyl)pyridin-2-yl)piperidin-4-yl)amino)methyl) phenyl)-N-hydroxyacrylamide formate], the IC50 worked out at 0.00058 µM in assay [1]; 0.75 nM in assay [2]; 0.44 nM in assay [3]; 30.3 nM in assay [4]; 0.0028 µM in assay [5]; 0.00324 µM in assay [6]. Besides, the values for the concentration for half-maximal inhibition (IC50) in assay [7] and in assay [8] were 0.0118 µM and 0.00809 µM, respectively.
